According to patent US7146277B2, “NMR assisted design of high affinity ligands for structurally uncharacterized proteins” (priority 2000, dated 2006):

Legend:
GnT-V = target: T1, GnT-V (Homo sapiens, UniProt Q09328); settings: cited from earlier work; for Kd: GnT-V, known binding constant
T1 construct: The soluble form of recombinant human GnT-V was expressed in CHO cells; made in house; host or cells: CHO cells
T1 sequence (Q09328 31-741 limits assumed): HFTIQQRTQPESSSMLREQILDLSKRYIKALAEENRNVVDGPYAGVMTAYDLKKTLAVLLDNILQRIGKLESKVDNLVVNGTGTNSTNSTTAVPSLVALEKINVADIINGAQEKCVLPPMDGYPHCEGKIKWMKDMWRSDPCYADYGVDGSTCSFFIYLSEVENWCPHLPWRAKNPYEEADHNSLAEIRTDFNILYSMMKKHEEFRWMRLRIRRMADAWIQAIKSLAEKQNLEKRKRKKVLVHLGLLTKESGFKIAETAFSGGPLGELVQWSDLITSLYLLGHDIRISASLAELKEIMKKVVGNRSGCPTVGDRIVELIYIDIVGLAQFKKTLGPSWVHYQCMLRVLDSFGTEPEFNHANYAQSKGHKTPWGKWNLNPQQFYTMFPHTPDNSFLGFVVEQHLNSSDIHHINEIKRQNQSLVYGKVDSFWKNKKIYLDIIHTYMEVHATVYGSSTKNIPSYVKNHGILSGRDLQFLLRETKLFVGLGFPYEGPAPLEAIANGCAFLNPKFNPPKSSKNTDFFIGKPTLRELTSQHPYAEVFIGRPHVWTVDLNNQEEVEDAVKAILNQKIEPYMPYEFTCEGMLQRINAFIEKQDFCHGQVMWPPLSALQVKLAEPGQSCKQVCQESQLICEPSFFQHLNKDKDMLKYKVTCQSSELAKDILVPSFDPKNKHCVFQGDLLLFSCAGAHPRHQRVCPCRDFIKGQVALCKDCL

[1] = target: T2, mannose-binding protein (MBP) (Rattus norvegicus, UniProt P19999); assay: Binding of AMM to mannose-binding protein (previously determined binding constant, used for the bound fraction); settings: 1 mM MBP-A, 1 mM AMM; calculated from dissociation constant and concentrations
T2 construct: made in house; host or cells: E. coli JA221
Excerpt: Interpretation of residual dipolar contributions of a ligand in a protein-bound state will, in general, require separation of the contribution from the free state using known binding properties. The observed residual dipolar couplings measured in the AMM/MBP complex (Table 2, Dobs) will be a population weighted average from the free (Nfree) and bound (Nbound) states, such that: Dobs=NfreeDfree+NboundDbound (1) The fraction of AMM free and bound (Nfree and Nbound) can be calculated from the dissociation constant and known protein-ligand concentrations. Using a previously determined binding constant (approx. 1 mM) approximately 40% of AMM is in fact bound to MBP leaving approximately 60% of AMM free in solution. Order Tensor Calculation in AMM

[2] = target: T2, mannose-binding protein (MBP); settings: AMM/MBP, previously determined; read-out: binding constant; cited from earlier work

## CC(=O)N[C@H]1[C@@H](OP(=O)(O)OP(=O)(O)OC[C@H]2O[C@@H](n3ccc(=O)[nH]c3=O)[C@H](O)[C@@H]2O)O[C@H](CO)[C@@H](O)[C@@H]1O [UDP-GlcNAc]
GnT-V
  Kd: 1.1 mM

## COC1O[C@H](CO)[C@@H](O)[C@H](O)[C@@H]1O (stereo partly drawn) [AMM, α-methyl mannoside]
[1]
  fraction of AMM bound to MBP: approximately 40%
[2]
  Kd: ~1 mM

## O=c1ccn([C@@H]2O[C@H](COP(=O)(O)OP(=O)(O)O)[C@@H](O)[C@H]2O)c(=O)[nH]1 [UDP, uridine diphosphate]
GnT-V
  Kd: 1.1 mM
  type of inhibition of GnT-V: competitive inhibitor
